Data as given in US20240068008A1, “RNase for Improved Microbial Detection and Antimicrobial Susceptibility Testing” (MicrobeDX Inc., priority 2016, published 2024).

Assays:
[1] = system: Escherichia coli; experiment: AST with and without RNase, rRNA levels relative to control at 60 or 90 minutes; format: cell-based; conditions: susceptible E. coli isolates, 60 or 90 minutes at 37° C., RNase added to the growth medium
Procedure: Similar results have been observed for other Gram-negative bacteria such as Kiebsiella pneumoniae, Proteus mirabilis, and Pseudomonas aeruginosa using the same conditions and RNase concentrations as for E. coli.
Susceptible (S) and resistant (R) E. coli isolates were incubated in growth medium with ampicillin for 60 or 90 minutes at 37° C. with (+) and without (−) RNase.
Susceptible (S) and resistant (R) E. coli isolates were incubated in growth medium with cefazolin for 60 or 90 minutes at 37° C. with (+) and without (−) 1 μg/ml RNase.
Susceptible (S) and resistant (R) E. coli isolates were incubated in growth medium with ceftriaxone for 60 or 90 minutes at 37° C. with (+) and without (−) RNase.

[2] = system: K. pneumoniae; experiment: as above; format: cell-based; conditions: susceptible K. pneumoniae isolates, 60 or 90 minutes at 37° C., RNase added to the growth medium
Procedure: Susceptible (S) and resistant (R) K. pneumoniae isolates were incubated in growth medium with cefepime for 60 or 90 minutes at 37° C. with (+) and without (−) 1 μg/ml RNase.
Susceptible (S) and resistant (R) K. pneumoniae isolates were incubated in growth medium with ceftriaxone for 60 or 90 minutes at 37° C. with (+) and without (−) RNase.

| Compound | rRNA levels relative to control (growth medium without antibiotic) [1] | rRNA levels relative to control (growth medium without antibiotic) [2] |
| --- | --- | --- |
| CC1(C)S[C@@H]2[C@H](NC(=O)[C@H](N)c3ccccc3)C(=O)N2[C@H]1C(=O)O [ampicillin] | significant reduction in rRNA |  |
| Cc1nnc(SCC2=C(C(=O)O)N3C(=O)[C@@H](NC(=O)Cn4cnnn4)[C@H]3SC2)s1 [cefazolin] | significant reduction in rRNA |  |
| CO/N=C(\C(=O)N[C@@H]1C(=O)N2C(C(=O)[O-])=C(C[N+]3(C)CCCC3)CS[C@H]12)c1csc(N)n1 [cefepime] |  | significant reduction in rRNA |
| CO/N=C(\C(=O)N[C@@H]1C(=O)N2C(C(=O)O)=C(CSc3nc(=O)c(=O)[nH]n3C)CS[C@H]12)c1csc(N)n1 [ceftriaxone] | significant reduction in rRNA | significant reduction in rRNA |
